Assay results taken from patent publication US11806393B2, “Flavivirus peptide sequences, epitopes, and methods and uses thereof” (priority 2017, dated 2023).
Ends that are not written are not given here.

Columns and labels:
[1] = tested on: splenocytes pulsed with ZIKV-derived peptides (target cells); type: in vivo, mouse; conditions: LysMCre+IFNARfl/fl mice infected with MR766 or FSS13025, day 7; targets pulsed with the three peptides; 12 h
Protocol: LysMCre^+IFNAR^fl/fl and WT mice were infected with 10^4 FFU of MR766 or FSS13025. Seven days post-infection, splenocytes were harvested from naïve donor mice, followed by stimulation with a pool of H-2b-restricted ZIKV-peptides (PrM169-177(SEQ ID NO: 19), E297-305 (SEQ ID NO: 25), N552783-2792 (SEQ ID NO: 20)) referred to as “Target Cells” or with DMSO for 3 h at 37° C. The cells were washed and labeled with CSFE (Invitrogen) in PBS/0.1% BSA for 10 min at 37° C. Target cells were labeled with 1 μM CSFE (High) or 100 nM CSFE (Low) for unstimulated cells. After washing, 10^7 of labeled cells (5×10^6 of each population) were injected intravenously into MOCK and infected recipients. Splenocytes from recipients were harvested 4 (Wild type) or 12 h later (LysMCre^+IFNAR^fl/fl) and analyzed by flow cytometry. The percentage of killing is calculated as followed: 100−(% ZIKV-peptide stimulated in infected mice/% DMSO-stimulated in infected mice)/(% ZIKV-peptide stimulated in naïve mice/% DMSO-stimulated in naïve mice)×100).
The following results are with respect to FIG. 7A to FIG. 7E, where WT C57BL/6 mice treated with type I IFN receptor-blocking antibody on day 1 prior to infection were inoculated with 10^4 FFU of ZIKV strain MR766 (n=3) or FSS (n=3), or injected with 10% FBS/PBS (MOCK, n=2). […] Four independent experiments for MR766 (n=8 mice per experiment) and two independent experiments for FSS13025 (n=8 mice per experiment) were performed in triplicate for each peptide. The data are expressed as the mean of spot forming cells (SFC) per 10^6 CD8^+ T cells. One-way ANOVA was used to compare the mean of each peptide with the control (DMSO). […] Pooled data from two independent experiments are shown. The dotted line corresponds to the average value obtained by MOCK after stimulation (0.43% of IFNγ^+CD8^+ T cells). Splenocytes were harvested on day 7 post-infection, followed by stimulation with 1 μg of IFNγ-ELISPOT-positive ZIKV-derived peptides in presence of Brefeldin A (BFA) and CD107a for 4 hours, and the production of IFNγ and TNFα was assessed via ICS. […]

CD8+ T cells [2] = assay: Intracellular cytokine staining (ICS), WT C57BL/6 mice treated with IFNAR-blocking antibody; type: cell-based, mouse; conditions: splenocytes day 7 after MR766 or FSS13025; four peptides shared by both strains, NS31866-1874 MR766 only
Protocol: (§1) For intracellular cytokine staining (ICS), splenocytes were counted after red blood cell lysis and resuspended in 10% FBS/RPMI medium at 40×10^6 cells per ml. Splenocytes (2×10^6) were plated and stimulated with 1 μg of individual peptide as previously detailed (Elong Ngono et al., 2016). Positive (PMA-Ionomycin) and negative (No stimulation) controls were added for all experiments. Cells were labeled with anti-CD3 (Clone 145-2C11), anti-CD8 (clone 53-67), anti-CD44 (clone IM7), and anti-CD62L (clone Mel-14). Cells then were fixed and permeabilized, followed by staining with anti-granzyme B (clone NGZB), anti-IFNγ (clone XMG 1.2) and anti-TNFα(clone MP6-XT22). Samples were read on an LSR II (BD Biosciences) and were analyzed using FLOWJO™ software X 10.0.7 (Tree Star, Ashland, Oreg.).
The following results are with respect to FIG. 7A to FIG. 7E, where WT C57BL/6 mice treated with type I IFN receptor-blocking antibody on day 1 prior to infection were inoculated with 10^4 FFU of ZIKV strain MR766 (n=3) or FSS (n=3), or injected with 10% FBS/PBS (MOCK, n=2). […] The data are expressed as the mean of spot forming cells (SFC) per 10^6 CD8^+ T cells. […] Splenocytes were harvested on day 7 post-infection, followed by stimulation with 1 μg of IFNγ-ELISPOT-positive ZIKV-derived peptides in presence of Brefeldin A (BFA) and CD107a for 4 hours, and the production of IFNγ and TNFα was assessed via ICS. […]

CD8+ T cells [3] = conditions: H-2b restricted; cited from earlier work
CD8+ T cells [4] = assay: ICS, LysMCre+IFNARfl/fl mice; type: cell-based, mouse; conditions: LysMCre+IFNARfl/fl mice infected with MR766 or FSS13025
Protocol: as §1
The following results are with reference to FIG. 3A and FIG. 3B, where five-week-old LysMCre^+IFNAR^fl/fl were infected retro-orbitally with 10^4 FFU of ZIKV MR766 or FSS13025. […] A total of 244 peptides from ZIKV strains predicted to bind H-2Kb and H-2db with high affinity were screened. Two independent experiments for each ZIKV strain (n=5 mice for each experiment) were performed in triplicate per peptide. The data are expressed as the mean of spot forming cells (SFC) per 10^6 CD8^+ T cells, and error bars are represented as SEM. […]

CD8+ T cells [5] = assay: IFNγ ELISPOT, ZIKV-infected Ifnar-/- HLA-B*0702 transgenic mice; type: cell-based, mouse; conditions: HLA-B*0702 mice, 7 days after 1×10^2 FFU ZIKV MR766
Protocol: (§2) Two ZIKV strains, MR766 (Uganda, 1947) and FSS13025 (Cambodia, 2010), were obtained from the World Reference Center for Emerging Viruses and Arboviruses (WRCEVA). The mouse-adapted DENV2 strain S221 is a triple-plaque purified clone derived from DENV2 D2S1038. Both ZIKV and DENV2 were amplified in C6/36 mosquito cells, and viral titers were measured using baby hamster kidney (BHK)-21 cell-based focus forming assay (FFA). For epitope screening, 5-week old mice (female or male) were infected retro-orbitally (R.O.) with either 1×102 FFU of ZIKV FSS13025 or ZIKV MR766, or 2×10^4 FFU of DENV2 S221 in 200 μl 10% FBS/PBS. Seven days after infection, CD8^+ T cells were isolated from splenocytes and used for ELISPOT assay, while the splenocytes were directly used for ICS assay. Additionally, 5-week old mice were inoculated I.P. with 2×10^3 FFU of DENV2 S221 for 4 weeks.
(§3) CD8^+ T cells were isolated from splenocytes using magnetic bead positive selection (Miltenyi Biotec, Germany) 7 days after virus infection. 2×10^5 CD8^+ T cells were stimulated with 1×10^5 LPS-blasts loaded with 10 μg of individual peptide in 96-well flat-bottom plates (IMMOBILON™-P; Millipore, Bedford, Mass.) that were coated with anti-IFNγ mAb (clone AN18; Mabtech, Stockholm, Sweden) in triplicate. Concanavalin A (ConA) was used as positive control. After 20 hours of incubation, biotinylated anti-mouse IFNγ mAb (R4-6A2; Mabtech), followed by ABC peroxidase (Vector Laboratories, Burlingame, Calif., USA) and then 3-amino-9-ethylcarbazole (Sigma-Aldrich, St. Louis, Mo., USA) were added into the wells. […] A peptide inducing a magnitude of >500 SFCs/10^6 CD8^+ T cells was considered as an immunodominant peptide.
Two independent experiments performed in triplicate were averaged and the error bars represent the SEM. The data are expressed as the mean number of spot forming cells (SFC) per 10^6 CD8^+ T cells. The criteria for positivity were net SFC per 10^6 cells of >20, and a stimulation index of >2.0 when compared with the negative control. Dotted lines represent the cutoff value. * Indicates a positive response. […] ConA denotes Concanavalin A.

CD8+ T cells [6] = assay: IFNγ ELISPOT, DENV2 S221-infected Ifnar-/- HLA-B*0702 transgenic mice; type: cell-based, mouse; conditions: HLA-B*0702 mice, 7 days after 2×10^4 FFU DENV2 S221
Protocol: as §2, §3
The following results are with respect to FIG. 14A and FIG. 14B, where Ifnar^−/− HLA-B*0702 transgenic mice were infected R.O. with 2×10^4 FFU of DENV2 strain S221 for 7 days. CD8^+ T cells isolated from splenocytes were stimulated with each of the 37 ZIKV epitopes identified via IFNγELISPOT to perform (FIG. 14A) IFNγELISPOT and (FIG. 14B) ICS assay. Data represent the average of two independent IFNγELISPOT experiments and two independent ICS experiments (n=7 mice) and are expressed as mean±SEM. Dotted line corresponds to the cutoff value. *, P<0.05.

CD3+CD8+ T cells = assay: IFNγ ICS, ZIKV-infected Ifnar-/- HLA-B*0702 transgenic mice; type: cell-based, mouse; conditions: HLA-B*0702 mice, 7 days after ZIKV MR766, ICS
Protocol: as §2
Spleens were harvested from virus-infected, mock-immunized, or peptide-immunized mice. 1×10^6 splenocytes were plated in each well of 96-well U-bottom plates and stimulated with individual peptide (10 μg crude peptide or 1 μg pure peptide per well) for 6 hours. Five hours before the end of incubation, Brefeldin A (GolgiPlug; BD Biosciences) and PE-conjugated anti CD107a mAb (clone 1D4B, eBioscience) were added to the cells. Splenocytes stimulated with PMA-ionomycin were used as the positive control, while cells without any stimulation were the negative control. […] Samples were run using an LSR™ II (BD Biosciences) and analyzed using FLOWJO™ software X 10.0.7 (Tree Star, Ashland, Oreg.).
Data represent the average of two independent experiments and are expressed as mean±SEM. *, P<0.05; **, P<0.01; Two-tailed Mann-Whitney test. P/I denotes PMA/ionomycin.

CD8+ T cells [7] = assay: ICS, DENV2-immune Ifnar-/- HLA-B*0702 mice challenged with ZIKV FSS13025; type: cell-based, mouse; conditions: day 3 after ZIKV FSS13025 challenge
Protocol: as §2
Spleens were harvested from virus-infected, mock-immunized, or peptide-immunized mice. 1×10^6 splenocytes were plated in each well of 96-well U-bottom plates and stimulated with individual peptide (10 μg crude peptide or 1 μg pure peptide per well) for 6 hours. Five hours before the end of incubation, Brefeldin A (GolgiPlug; BD Biosciences) and PE-conjugated anti CD107a mAb (clone 1D4B, eBioscience) were added to the cells. Splenocytes stimulated with PMA-ionomycin were used as the positive control, while cells without any stimulation were the negative control. After incubation, cells were first stained with PERCPCY™ 5.5-conjugated anti-CD3 mAb (Clone 145-2C11, TONBO), PE-CY7™-conjugated anti-CD8 mAb (clone 53-67, BD Biosciences), EFLUOR™ 450-conjugated anti-CD44 mAb (clone IM7, eBioscience), and APC eFluor 780-conjugated anti-CD62L mAb (clone Mel-14, eBioscience). Cells were then fixed and permeabilized using CYTOFIX/CYTOPERM™ solution (BD Biosciences), followed by staining with FITC-conjugated anti-IFNγ mAb (clone XMG 1.2, TONBO) and APC-conjugated anti-TNFα mAb (clone MP6-XT22, eBioscience). Samples were run using an LSR™ II (BD Biosciences) and analyzed using FLOWJO™ software X 10.0.7 (Tree Star, Ashland, Oreg.).
The following results are with respect to FIG. 11 to FIG. 11E, where Ifnar^−/− HLA-B*0702 transgenic mice were inoculated I.P. with 2×10^3 FFU of DENV2 strain S221 for 4 weeks. Naive mice (n=5) and DENV2 strain S221-immune mice (n=5) were challenged R.O. with 1×10^4 FU of ZIKV FSS13025 for three days, and the percentages of peptide-specific IFNγ^+ and/or TNFα^+ CD8^+ T cells were detected by ICS (FIG. 11A and FIG. 11B). […] Data were expressed as mean±SEM. *, P<0.05; **, P<0.01; Two-tailed ann-Whitney test. Black “*” indicates ZIKV-specific response while bold “*” represents ZIKV/DENV cross-reactive response. All positive peptides were grouped according the ZIKV specificity of immune response (FIG. 11E). Numbers in parentheses indicate the number of positive peptides in this group.

Sequence	in vivo cytotoxicity against peptide-pulsed splenocytes [1]	frequency of IFNγ-producing CD8+ T cells (ICS) (CD8+ T cells [2])	cross-reactivity with CD8+ T cells induced in DENV2-infected mice (CD8+ T cells [3])	other results
ATMSYECPM [SEQ ID NO 19]	high percentage of cytotoxicity			
SNRDFVEGM [SEQ ID NO 25]	high percentage of cytotoxicity			
PSVRNGNEI [SEQ ID NO 5]		induced a high frequency of IFNγ-expressing cells	cross-reactive	
IGVSNRDFV [SEQ ID NO 21]		induced a high frequency of IFNγ-expressing cells	cross-reactive	immunodominance of epitopes (IFNγ+TNFα+ and CD107a+IFNγ+ ICS) (CD8+ T cells [4]): immunodominant epitopes
CAEAPNMKVI [SEQ ID NO 20]	high percentage of cytotoxicity			
VVMILGGFSM [MR-NS2A31-40]				SFC/10^6 CD8+ T cells, MR766 (CD8+ T cells [5]): 106 SFC/10^6 CD8+ T cells; SFC/10^6 CD8+ T cells, S221 (CD8+ T cells [6]): 51 SFC/10^6 CD8+ T cells; % IFNγ+ CD8+ T cells, MR766 (CD3+CD8+ T cells): (0.37%); percentage of epitope-specific IFNγ-producing CD8+ T cells (CD8+ T cells [7]): 0.42±0.12%
